Measured values from patent US10274488B2, “Glycan arrays on PTFE-like aluminum coated glass slides and related methods” (Academia Sinica, priority 2008, dated 2019).

What was measured:
cellulase from A. niger = experiment: Enzymatic hydrolysis in solution with cellulase from A. niger, MS-TOF readout; type: biochemical, Aspergillus niger; details: reaction in solution
Description: (§1) Enzymatic hydrolysis of the immobilized poly-fluorinated cellobiose 8 (see FIG. 14) was first conducted in situ on the phosphonic acid slide surface. Three commercially available cellulases, Aspergillus niger (A. niger), Trichoderma reesei (T. reesei), and Trichoderma viride (T. viride) were prepared separately at 5 U/mL in a sodium acetate (25 mM) buffer solution (pH 5) and loaded onto the functionalized slide which has been divided into 16 wells using Fast Frame reaction chambers. For comparison, an aliquot of enzyme solution (100 μL) was added to the solution of fluorinated cellobiose (100 μL of 0.5 mM) in eppendorfs to carry out the enzymatic hydrolysis reactions in solution. After the reaction, it was transferred to the empty wells of the same slide. Each well was rinsed separately three times with de-ionized water and the slide was dried again under high vacuum before subjecting to MS-TOF analysis.
(§2) Under MS-TOF analysis, the clean background baseline allowed calculation of the percentage of hydrolyzed components for each sample. As shown in the MS-TOF results in FIG. 20, percentages of hydrolyzed products are calculated from the peak intensities of each spectrum. According to implementations of experimental data shown in FIG. 20, MS-TOF data of enzymatic hydrolysis of poly-fluorinated cellobiose in solution in FIG. 20A and immobilized on PTFE-like ACG slide in FIG. 20B. The control are the same experimental conditions run without enzymes in (a); (b), (c), and (d) are experimental conditions with the cellulase proteins from A. niger (b), T. reesei (c), and T. viride (d).
(§3) Cellulase was prepared (5 U/mL in 25 mM pH 5.05 NaOAc buffer solution). Substrate was also dissolved in NaOAc buffer solution (25 mM, pH 5.05) to give 0.5 mM substrate solution. Add 100 uL cellulase solution to 100 uL substrate solution in eppendorf to have a 2.5 U/mL cellulase solution with 0.25 mM substrate. This solution was incubated in 37° C. for 18 hours. Add 100 μL incubated solution onto the slide loaded in FAST® Frame. Put the slide in dry box to remove the water, and then use high vacuum to remove trace water. 100 μL water was used to rinse each well of the FAST® Frame multi-slide plate to solve and remove the salt of the buffer solution. Remove any residual water on the plate by high vacuum and then analyzed the slide by MALDI-TOF Ultra-Flex II.

cellulase from T. reesei = experiment: Enzymatic hydrolysis in solution with cellulase from T. reesei, MS-TOF readout; type: biochemical, Trichoderma reesei; details: reaction in solution
Description: as §1, §2, §3

endoglucanase 44A = experiment: Enzymatic hydrolysis on the PTFE-like ACG surface with endoglucanase 44A, MS-TOF assay; type: biochemical, Clostridium thermocellum; details: substrate immobilized on the PTFE-like ACG surface
Description: For each carbohydrate, a specific enzyme was added: (a) is the control run without enzymes, (b) is exoglucanase L3, and (c) is endoglucanase 44A. […]
For comparison and as illustrated according to implementations shown in FIG. 23, substrate 8, 9, and 10 were immobilized on the PTFE-like ACG surface and carried out the cellulase hydrolysis on the surface directly, after the same washing procedures, these slides were subjected to MS-TOF assay. […] The endoglucanase 44A can't accept compound 8 or 9 as a substrate. […] From the above results, the cellotetraose substrate 10 was the best carbohydrate to create array on the PTFE-like ACG surface for the experiments conducted. By using this array, the activity and specificity of unknown cellulase may be examined.
Cellulase was prepared (5 U/mL in 25 mM pH 5.05 NaOAc buffer solution). Substrate was also dissolved in NaOAc buffer solution (25 mM, pH 5.05) to give 0.5 mM substrate solution. Add 50 μL cellulase solution to 50 μL substrate solution onto the glass slide which was loaded in FAST® Frame multi-slide plate to have a 2.5 U/mL cellulase solution with 0.25 mM substrate. The well of the plate was sealed and the whole assembly was incubated in 37° C. for 18 hours. Put the slide in dry box to remove the water, and then use high vacuum to remove trace water. 100 uL water was used to rinse each well of the FAST® Frame multi-slide plate to solve and remove the salt of the buffer solution. Remove any residual water on the plate by high vacuum and then analyzed the slide by MALDI-TOF Ultra-Flex II.
The genomic DNA of Sulfolobus solfataricus (ATCC 35092) and Clostridium thermocellum (ATCC 27405) were obtained from the ATCC biological resource center. The Sso7d (NCBI accession number: AAK42090) gene fragment was amplified directly from the Sulfolobus solfataricus genome by polymerase chain reaction (PCR) with forward 5′ […] 3′ (SEQ ID NO: 1) and reverse 5′ […] 3′ (SEQ ID NO: 2) primers. […]

Biose (un-hydrolyzed cellobiose), percentage of hydrolyzed pattern (cellulase from A. niger; A. niger cellulase, pH 5) [%] | F-tail, percentage of hydrolyzed pattern (cellulase from A. niger; A. niger cellulase, pH 5) | Glucose, percentage of hydrolyzed pattern (cellulase from A. niger; A. niger cellulase, pH 5) [%] | Triose, percentage of hydrolyzed pattern (cellulase from A. niger; A. niger cellulase, pH 5) [%] | Triose, percentage of hydrolyzed pattern (cellulase from A. niger; A. niger cellulase, pH 5, listed as cellobiose) [%] | Hydrolysis of the substrate by the enzyme from A. niger, one glucose unit at a time (in words) (cellulase from A. niger) | Biose (un-hydrolyzed cellobiose), percentage of hydrolyzed pattern (cellulase from T. reesei; T. reesei cellulase, pH 5) [%] | F-tail, percentage of hydrolyzed pattern (cellulase from T. reesei; T. reesei cellulase, pH 5) [%] | Glucose, percentage of hydrolyzed pattern (cellulase from T. reesei; T. reesei cellulase, pH 5) [%] | Triose, percentage of hydrolyzed pattern (cellulase from T. reesei; T. reesei cellulase, pH 5) | Cleavage of the substrate by endoglucanase 44A (in words) (endoglucanase 44A) | Hydrolysis of the substrate by the enzyme from T. reesei compared with the enzymes from the other two species (in words) (cellulase from T. reesei) | SMILES
64 | 0/0% | 18 | 18 | 8 | very slow reaction rate | 7 | 0 | 93 | 0/0% | can't accept | – | O=C(NCCCCCO[C@@H]1O[C@H](CO)[C@@H](O[C@@H]2O[C@H](CO)[C@@H](O)[C@H](O)[C@H]2O)[C@H](O)[C@H]1O)OCCCC(F)(F)C(F)(F)C(F)(F)C(F)(F)C(F)(F)C(F)(F)C(F)(F)C(F)(F)F [Compound 8, [(4,4,5,5,6,6,7,7,8,8,9,9,10,10,11,11,12,12,12-nonadecafluorododecoxycarbonyl-amino)pentyl] ß-D-cellobioside]
– | – | – | – | – | very slow reaction rate | – | – | – | – | can't accept | most efficiently | O=C(NCCCCCO[C@@H]1O[C@H](CO)[C@@H](O[C@@H]2O[C@H](CO)[C@@H](O[C@@H]3O[C@H](CO)[C@@H](O)[C@H](O)[C@H]3O)[C@H](O)[C@H]2O)[C@H](O)[C@H]1O)OCCCC(F)(F)C(F)(F)C(F)(F)C(F)(F)C(F)(F)C(F)(F)C(F)(F)C(F)(F)C(F)(F)F [Compound 9, [(4,4,5,5,6,6,7,7,8,8,9,9,10,10,11,11,12,12,12-nonadecafluorododecoxycarbonyl-amino)pentyl] ß-D-glucopyranosyl-(1→4)-ß-D-glucopyranosyl-(1→4)- -ß-D-glucopyranoside]
